Experiments:
[1] = test system: Cuphea C10-preferring acyl-ACP thioesterase (preparation from Example 9C); experiment: Acyl-ACP hydrolysis by the Cuphea preparation from Example 9C; type: biochemical, Cuphea hookeriana; details: 0.5µM acyl-ACP, pH 9, 30°C for 60 min; corrected for non-enzymatic hydrolysis
Experimental: As a more preferred alternative to Example 9A or 9B, forty grams of polyvinylpolypyrrolidone (PVPP) are mixed with 550 ml "extraction buffer" comprising 200 mM bis-Tris-HCl pH 6., 10mM 2-mercaptoethanol, 1% (w/v) polyvinylpyrrolidone-10. To this mixture are added 40g frozen Cuphea seeds. The mixture is then blended in a Polytron homogenizer until no intact seeds remain and the slurry is smooth. This and all subsequent steps are conducted at 0-4°C. The preparation is centrifuged at 12,000xg for 20 min and further clarified by filtration through Miracloth.
This preparation is mixed with 100ml of settled hydroxyapatite which has been equilibrated with "buffer A" (50mM bis-Tris-HCl pH 6., […] 2-mercaptoethanol). Three extract volumes of 10mM 2-mercaptoethanol are then added slowly over 30 min, with constant stirring. The hydroxyapatite gel is collected on a sintered glass funnel and rinsed with buffer A until the effluent is colorless. The collected hydroxyapatite is then transferred to a column and further rinsed with buffer A at 2ml/min until the column is packed. A 400ml elution gradient is applied (2ml/min), from buffer A to buffer B (300mM potassium phosphate pH 6.9 in buffer A). Effluent fractions are assayed for hydrolysis of 10:0-ACP. Two overlapping peaks of activity are obtained. The fractions comprising the later-eluting peak are pooled and dialyzed against buffer A.
The dialyzed material is applied at 1.3ml/min to a 2.5 x 6.5cm column of Blue 4 Agarose (Sigma Chemical Co.; St. Louis, MO) equilibrated with buffer A. The column is washed with buffer A, and enzyme activity is subsequently eluted with a 400ml gradient from buffer A to buffer C (buffer A containing 1M NaCl). The eluted fractions contain three peaks of 10:0-ACP hydrolysis activity. Those fractions comprising the second peak to elute (eluted by approximately 0.4m NaCl) are pooled and dialyzed against buffer A. […]
The preparation from Example 9C is relatively selective in its hydrolysis of acyl-ACP thioesters, as shown in the following table: (These activities were determined as follows. Twenty five µl of sample were added to 75µl assay buffer comprising 100mM glycine-KOH pH 9, 0.2% (w/v) CHAPS, 10mM 2-mercaptoethanol, and containing radiolabeled acyl-ACP for a final concentration of 0.5µM. After incubation at 30°C for 60 min, the reaction was terminated by addition of 0.5ml 10% (v/v) acetic acid, and the liberated fatty acid product was extracted with 1ml diethyl ether. Enzyme activity was measured by the radioactivity of this ether extract, determined by liquid scintillation counting. […]

[2] = test system: control induced E. coli lysate; experiment: Acyl-ACP hydrolysis by control E. coli lysate (bay thioesterase gene in opposite orientation); type: biochemical; details: Dilution 1/4000, one hour induction with 0.1mM IPTG
Experimental: To assay for C12 thioesterase activity the following mixture is incubated at 30° for 30 min: "buffer" comprising 7mM KH2PO4-KOH pH 8, 20% v/v glycerol, 1mM dithiothreitol (DTT), 0.1% v/v Triton X100; sample to be tested for activity in the same or similar buffer as the "extraction buffer" described in Example 2; and 5µl of ^14C-radiolabeled lauroyl-ACP substrate for a total volume of 100µl and final lauroyl-ACP concentration of 0.5µM. Lauroyl-ACP substrate is prepared according to the method of Rock et al (Methods in Enzymology (1981) 72:397-403), using ACP prepared from Escherichia coli by the method of Rock and Cronan (Methods in Enzymology (1981) 71:341-351). The laurate is radiolabeled in the carboxylate group at a specific radioactivity of 50-60µCi/µmol.
The reaction is stopped by adding 0.5ml cold (0°) 10% v/v acetic acid. The fatty acid product of the hydrolytic enzyme action is extracted away from the unhydrolyzed substrate by adding 1ml diethyl ether and mixing vigorously. After settling for a few minutes the upper ether layer is transferred to 5ml scintillation fluid for determination of radioactivity by liquid scintillation spectrometry. Additional ether extractions may be performed to recover remaining traces of the reaction product for more accurate quantitation of the enzyme activity if desired. The amount of ether-extracted radioactivity is a direct measure of C12-preferring acyl-ACP thioesterase activity, provided the amount of enzyme is not sufficient to hydrolyze more than about 25% of the substrate. With greater activity than this the relationship between radioactivity in the ether layer and the quantity of enzyme becomes markedly nonlinear. The enzyme preparation must then be diluted appropriately to bring the activity into the linear range of the assay.
The resulting construct, pCGN3823, and a control Bluescribe construct having the bay thioesterase gene inserted in the opposite orientation are transformed into E. coli. The E. coli cells are grown at 37°C in liquid medium and expression from the lac promoter is induced by addition of IPTG to a final concentration of 0.1mM IPTG. Following one hour of induction, cells are harvested, lysed and assayed as described above for the truncated bay thioesterase.

In the case of 14:0-ACP, the Activity [1] is reported as 30 cpm and the “Hydrolysis Activity (mean cpm in ether extract)” value (shortened to “Hydrolysis Activity”) [2] is reported as 0 cpm.
In the case of 16:0-ACP, the Activity [1] is reported as 262 cpm and the “Hydrolysis Activity” value [2] is reported as 13 cpm.
For decanoyl-ACP [10:0-ACP], the Activity [1] was 1010 cpm and the “Hydrolysis Activity” value [2] was 0 cpm.
For lauroyl-ACP [12:0-ACP], the Activity [1] was 393 cpm and the “Hydrolysis Activity” value [2] was 0 cpm.
